According to patent US6407104B1, “Pyrrolo[1,2-a]pyrazine spla2 inhibitor” (Shionogi & Co., Ltd., priority 1998, dated 2002):
Structures can show the parent of a compound that is named as a salt.

Columns and labels:
[1] = biological target: T1, recombinant human secretory phospholipase A2 (Homo sapiens, UniProt P14555); experiment: Inhibition Test of Human Secretory Phospholipase A2 (chromogenic assay); format: biochemical; conditions: sPLA2 50 ng/well, 40° C., 30 minutes, OD 405 nm, 96 well microtiterplate
T1 sequence (P14555 21-144): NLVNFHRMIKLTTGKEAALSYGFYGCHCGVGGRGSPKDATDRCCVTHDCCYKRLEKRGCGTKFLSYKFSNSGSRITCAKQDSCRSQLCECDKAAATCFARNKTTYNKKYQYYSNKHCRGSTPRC
Text: Test Example: Inhibition Test of Human Secretory Phospholipase A2
In order to identify and evaluate an inhibitor of recombinant human secretory phospholipase A2, the following chromogenic assay is utilized. The assay herein has been applied for high volume screening wherein 96 well microtiterplate is used. A general explanation for such assay is described in “Analysis of Human Synovial Fluid Phospholipase A2 on Short Chain Phosphatidylcholine-Mixed Micelles: Development of a Spectrophotometric Assay Suitable for a Micortiterplate Reader” (Analytical Biochemistry, 204, pp 190-197, 1992 by Laure. J. Reynolds. Lori L. Hughes and Edward A. Dennis: the disclosure of which is incorporated herein for reference.
pH 7.5 (adjusted with NaOH)
pH 4.5 (adjusted with acetic acid)
1 mg of sPLA2 is dissolved in 1 ml of an enzyme buffer. Thereafter, the solution is maintained at 4° C.
In the assay, 5 μl of the solution is diluted with 1995 μl of the reaction buffer to be used.
198 mg of 5,5′-dithiobis-2-[…] (manufactured by Wako Pure Chemicals) is dissolved in 100 ml of H2O
H 7.5 (adjusted with NaOH)
100 mg of racemic 1,2-bis(heptanoylthio)-1,2-dideoxy-sn-glycero-3-phospholylcholine is dissolved in 1 ml of chloroform.
624.9 mg of Triton-X 100 is dissolved in the reaction buffer.
Enzyme Reaction: for 1 Plate of Microtiterplate
1) 0.106 ml of the substrate solution is put in a centrifugal tube, and nitrogen gas is jetted to remove the solvent. 0.54 ml of Triton-X 100 is added thereto, the mixture is stirred, thereafter it is sonified in a bath type sonification to dissolve. To the resulting product are added 17.8 ml of the reaction buffer and 0.46 ml of DTNB, and 0.18 ml each of the admixture is poured to wells of the 96 well microtiterplate.
2) 10 μl of a test compound (or solvent blank) are added in accordance with alignment of plates which has been previously set.
3) Incubation is effected at 40° C. for 15 minutes.
4) 20μl of an enzyme solution (sPLA2) which has been previously diluted (50 ng/well) are added to start reaction (40° C., 30 minutes).
5) Changes in absorbancy for 30 minutes are measured by a plate reader, and inhibition activity was calculated (OD: 405 nm).
6) IC50 was determined by plotting log concentration with respect to inhibition values within 10% to 90% inhibiting range.

| Compound | melting point | IC50 [1] |
| --- | --- | --- |
| CCc1c(C(=O)C(N)=O)c2c(OCC(=O)O)nc(C)cn2c1Cc1ccc(F)cc1 (as salt: Na) [Compound I-99] | 250 to 265 °C |  |
| CCc1c(C(=O)C(N)=O)c2c(OCC(=O)O)nc(C)cn2c1Cc1ccccc1-c1ccsc1 (as salt: Na) [Compound I-102] | 260 to 263 °C |  |
| CCc1c(C(=O)C(N)=O)c2c(OCC(=O)OC)nccn2c1Cc1ccccc1 [Compound I-1] | 151 to 152 °C | 208 nM |
| CCc1c(C(=O)C(N)=O)c2c(OCC(=O)O)nccn2c1Cc1ccccc1 [Compound I-2, [6-Benzyl-7-ethyl-8-oxamoylpyrrolo[1,2-a]pyrazin-1-yl]oxyacetic acid] |  | 11 nM |
| COC(=O)COc1nccn2c(Cc3ccccc3)c(C3CC3)c(C(=O)C(N)=O)c12 [Compound I-3] | 177 to 179 °C | 2620 nM |
| NC(=O)C(=O)c1c(C2CC2)c(Cc2ccccc2)n2ccnc(OCC(=O)O)c12 [Compound I-4] | 189 to 191 °C | 35 nM |
| CCc1c(C(=O)C(N)=O)c2c(OCC(=O)OC)nccn2c1Cc1cccs1 [Compound I-5] | 165 to 166 °C | 314 nM |
| CCc1c(C(=O)C(N)=O)c2c(OCC(=O)O)nccn2c1Cc1cccs1 [Compound I-6] | 225 to 227 °C | 9 nM |
| CCc1c(C(=O)C(N)=O)c2c(OCC(=O)OC)nccn2c1CC1CCCCC1 [Compound I-7] | 162 to 163 °C | 389 nM |
| CCc1c(C(=O)C(N)=O)c2c(OCC(=O)O)nccn2c1CC1CCCCC1 [Compound I-8] | 205 to 206 °C | 11 nM |
| CCc1c(C(=O)C(N)=O)c2c(OCC(=O)OC)nccn2c1Cc1cccc(OC)c1 [Compound I-9] | 154 to 155 °C | 435 nM |
| CCc1c(C(=O)C(N)=O)c2c(OCC(=O)O)nccn2c1Cc1cccc(OC)c1 [Compound I-10] | 196 to 197.5 °C | 14 nM |
| CCc1c(C(=O)C(N)=O)c2c(OCC(=O)OC)nccn2c1Cc1ccc2ccsc2c1 [Compound I-11] | 144 to 148 °C | 194 nM |
| CCc1c(C(=O)C(N)=O)c2c(OCC(=O)O)nccn2c1Cc1ccc2ccsc2c1 [Compound I-12] | 209 to 211 °C | 10 nM |
| COC(=O)COc1nccn2c(Cc3ccccc3)c(C)c(C(=O)C(N)=O)c12 [Compound I-13] | 182 to 183 °C | 157 nM |
| Cc1c(C(=O)C(N)=O)c2c(OCC(=O)O)nccn2c1Cc1ccccc1 [Compound I-14] | 207 to 208 °C | 11 nM |
| CCc1c(C(=O)C(N)=O)c2c(OCC(=O)OC)nccn2c1CC1CCCC1 [Compound I-15] | 165 to 166 °C | 512 nM |
| CCc1c(C(=O)C(N)=O)c2c(OCC(=O)O)nccn2c1CC1CCCC1 [Compound I-16] | 203 to 205 °C | 6 nM |
| CCc1c(C(=O)C(N)=O)c2c(OCC(=O)OC)nc(C)cn2c1Cc1ccccc1 [Compound I-17] | 192 to 194 °C | 172 nM |
| CCc1c(C(=O)C(N)=O)c2c(OCC(=O)O)nc(C)cn2c1Cc1ccccc1 [Compound I-18, [6-Benzyl-7-ethyl-3-methyl-8-oxamoylpyrrolo[1,2-a]pyrazin-1-yl]oxyacetic acid] | 207 to 208 °C | 9 nM |
| CCc1c(C(=O)C(N)=O)c2c(OCC(=O)OC)nc(C)cn2c1Cc1ccc(F)cc1 [Compound I-19] | 167 to 168 °C | 562 nM |
| CCc1c(C(=O)C(N)=O)c2c(OCC(=O)O)nc(C)cn2c1Cc1ccc(F)cc1 [Compound I-20] | 204 to 205 °C |  |
| CCc1c(C(=O)C(N)=O)c2c(OCC(=O)OC)nc(C)cn2c1Cc1ccccc1-c1ccccc1 [Compound I-21] | 164.5 to 165.5 °C | 41 nM |
| CCc1c(C(=O)C(N)=O)c2c(OCC(=O)O)nc(C)cn2c1Cc1ccccc1-c1ccccc1 [Compound I-22, [6-(2-Biphenylmethyl)-7-ethyl-3-methyl-8-oxamoylpyrrolo [1,2-a]pyrazin-1-yl]oxyacetic acid] | 192 to 194 °C | 8 nM |
| CCc1c(C(=O)C(N)=O)c2c(OCC(=O)OC)nc(C)cn2c1CC1CCCC1 [Compound I-23] | 135 to 136.5 °C | 651 nM |

| Compound | melting point | IC50 [1] |
| --- | --- | --- |
| CCc1c(C(=O)C(N)=O)c2c(OCC(=O)O)nc(C)cn2c1CC1CCCC1 [Compound I-24] | 192 to 193 °C | 17 nM |
| CCc1c(C(=O)C(N)=O)c2c(OCC(=O)OC)nc(C)cn2c1Cc1ccccc1F [Compound I-25] | 187 to 188 °C | 196 nM |
| CCc1c(C(=O)C(N)=O)c2c(OCC(=O)O)nc(C)cn2c1Cc1ccccc1F [Compound I-26] | 218 to 219 °C | 12 nM |
| CCc1c(C(=O)C(N)=O)c2c(OCC(=O)OC)nc(C)cn2c1Cc1ccccc1Cc1ccccc1 [Compound I-27] | 134.5 to 136 °C | 22 nM |
| CCc1c(C(=O)C(N)=O)c2c(OCC(=O)O)nc(C)cn2c1Cc1ccccc1Cc1ccccc1 [Compound I-28] | 180.5 to 182.5 °C | 7 nM |
| CCc1c(C(=O)C(N)=O)c2c(OCC(=O)OC)nc(C)cn2c1Cc1ccccc1-c1ccc(F)cc1 [Compound I-29] | 147 to 149 °C | 56 nM |
| CCc1c(C(=O)C(N)=O)c2c(OCC(=O)O)nc(C)cn2c1Cc1ccccc1-c1ccc(F)cc1 [Compound I-30] | 175 to 177 °C | 8 nM |
| CCc1c(C(=O)C(N)=O)c2c(OCC(=O)OC)nc(C)cn2c1Cc1ccc(F)cc1F [Compound I-31] | 161 to 163 °C | 1170 nM |
| CCc1c(C(=O)C(N)=O)c2c(OCC(=O)O)nc(C)cn2c1Cc1ccc(F)cc1F [Compound I-32] | 208 to 210 °C | 28 nM |
| CCc1c(C(=O)C(N)=O)c2c(OCC(=O)O)nc(C)cn2c1Cc1ccccc1-c1cccs1 [Compound I-52, [7-Ethyl-3-methyl-8-oxamoyl-6-(2-(2-thienyl)benzyl)pyrrolo[1,2-a]pyrazin-1-yl]oxyacetic acid] |  | 5 nM |
| CCc1c(C(=O)C(N)=O)c2c(OCC(=O)O)nc(C)cn2c1Cc1ccccc1C#Cc1ccccc1 [Compound I-54, [7-Ethyl-3-methyl-8-oxamoyl-6-(2-phenylethynylbenzyl)pyrrolo [1,2-a]pyrazin-1-yl]oxyacetic acid] |  | 6 nM |
| CCc1c(C(=O)C(N)=O)c2c(SCC(=O)O)nc(C)cn2c1Cc1ccccc1-c1ccc(F)cc1 [Compound I-58] |  | 25 nM |
| COC(=O)COc1nc(C)c(Cc2ccc(F)cc2)n2cc(C)c(C(=O)C(N)=O)c12 [Compound I-59] |  | 15800 nM |
| Cc1cn2c(Cc3ccc(F)cc3)c(C)nc(OCC(=O)O)c2c1C(=O)C(N)=O [Compound I-60] |  | 1210 nM |
| CCc1c(C(=O)C(N)=O)c2c(OCC(=O)OC)nc(C)cn2c1Cc1ccccc1-c1cccnc1 [Compound I-65] |  | 1550 nM |
| CCc1c(C(=O)C(N)=O)c2c(OCC(=O)O)nc(C)cn2c1Cc1ccccc1-c1cccnc1 [Compound I-66] |  | 45 nM |
| CCc1c(C(=O)C(N)=O)c2c(OCC(=O)OC)nc(C)cn2c1Cc1ccccc1-c1ccc(OC)cc1 [Compound I-67] |  | 57 nM |
| CCc1c(C(=O)C(N)=O)c2c(OCC(=O)O)nc(C)cn2c1Cc1ccccc1-c1ccc(OC)cc1 [Compound I-68] |  | 8 nM |
| CCc1c(C(=O)C(N)=O)c2c(OCC(=O)OCCN3CCOCC3)nc(C)cn2c1Cc1ccccc1-c1ccc(F)cc1 [Compound I-96] |  | 77 nM |
| CCc1c(C(=O)C(N)=O)c2c(OCC(=O)OCCN3CCOCC3)nc(C)cn2c1Cc1ccccc1-c1cccs1 [Compound I-97] |  | 78 nM |
| CCc1c(C(=O)C(N)=O)c2c(OCC(=O)O)nc(C)cn2c1Cc1ccc(F)cc1 [Compound I-99] |  | 21 nM |
| CCc1c(C(=O)C(N)=O)c2c(OCC(=O)O)nc(C)cn2c1Cc1ccccc1-c1ccc(F)cc1 [Compound I-100] |  | 21 nM |
| CCc1c(C(=O)C(N)=O)c2c(OCC(=O)O)nc(C)cn2c1Cc1ccccc1-c1cccs1 [Compound I-101] |  | 19 nM |
| CCc1c(C(=O)C(N)=O)c2c(OCC(=O)O)nc(C)cn2c1Cc1ccccc1-c1ccsc1 [Compound I-102] |  | 20 nM |
